For 15 molecules, IC50 results are on record in ChEMBL document CHEMBL1131368, “Synthesis of novel substituted pyridines as inhibitors of endothelin converting enzyme-1 (ECE-1)” (Bioorg Med Chem Lett, 1998).

Each structure is given as a SMILES string.

This experiment concerns the target T1, Endothelin-converting enzyme 1 (Homo sapiens, UniProt P42892).
T1 sequence (P42892 whole entry): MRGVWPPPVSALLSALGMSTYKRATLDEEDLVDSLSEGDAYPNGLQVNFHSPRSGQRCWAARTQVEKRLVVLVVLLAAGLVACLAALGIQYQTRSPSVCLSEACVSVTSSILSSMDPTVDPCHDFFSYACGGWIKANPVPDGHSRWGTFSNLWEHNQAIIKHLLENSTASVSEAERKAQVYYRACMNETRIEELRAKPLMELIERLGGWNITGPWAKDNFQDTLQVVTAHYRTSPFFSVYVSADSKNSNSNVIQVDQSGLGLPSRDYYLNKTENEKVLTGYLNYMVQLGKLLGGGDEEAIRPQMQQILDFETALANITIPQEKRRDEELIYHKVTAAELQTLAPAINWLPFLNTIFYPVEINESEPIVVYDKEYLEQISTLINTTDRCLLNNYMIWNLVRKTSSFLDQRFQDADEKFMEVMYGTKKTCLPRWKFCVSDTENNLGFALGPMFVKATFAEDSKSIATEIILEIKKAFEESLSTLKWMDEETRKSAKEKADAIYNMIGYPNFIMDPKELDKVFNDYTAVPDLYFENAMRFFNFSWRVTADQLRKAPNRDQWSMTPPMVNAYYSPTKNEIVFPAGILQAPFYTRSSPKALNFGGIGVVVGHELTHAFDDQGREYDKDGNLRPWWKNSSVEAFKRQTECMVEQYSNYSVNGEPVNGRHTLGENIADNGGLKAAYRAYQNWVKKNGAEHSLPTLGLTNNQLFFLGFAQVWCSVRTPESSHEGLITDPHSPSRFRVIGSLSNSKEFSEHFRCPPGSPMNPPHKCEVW
Kind of experiment: Inhibition of human recombinant Endothelin-converting enzyme 1.

For orientation: IC50 means the concentration that inhibits the measured activity by half. On to `Cc1nc(-c2cccc(C(=O)O)n2)cs1`, for which the concentration for half-maximal inhibition (IC50) stood at 10000 nM. In the case of `COc1cc(C(=O)O)nc(-c2ccoc2)c1OC` it was > 50000 nM; in that of `COc1ccc(C(=O)O)nc1-c1csc(C)n1`, 1400 nM. `CNc1nc(-c2nc(C(=O)O)cc(OC)c2OC)cs1`: the IC50 turned out to be 2600 nM.

`COc1ccc(C(=O)O)nc1-c1csc(-c2ccccc2)n1`: the IC50 stood at 1300 nM. Turning to `COc1cc(C(=O)O)nc(-c2ccsc2)c1OC`, the IC50 is > 50000 nM. On to `COc1ccc(C(=O)O)nc1-c1nccs1`, for which the IC50 came to 24000 nM. As to `COc1cc(C(=O)O)nc(-c2csc(C)n2)c1OC`, the IC50 is 1400 nM. Under `COc1ccc(C(=O)O)nc1-c1csc(-c2ccc3ccccc3c2)n1` stands 1500 nM; under `COc1ccc(C(=O)O)nc1-c1csc(-c2ccc(-c3ccccc3)cc2)n1`, 10000 nM. Under `COc1ccc(C(=O)O)nc1-c1csc(Cc2ccccc2)n1` stands 860 nM; under `COc1cc(C(=O)O)nc(-c2cccn2C)c1OC`, > 50000 nM; under `COc1ccc(C(=O)O)nc1-c1c[nH]cn1`, 2400 nM. Turning to `COc1ccc(C(=O)O)nc1-c1csc(CCc2ccccc2)n1`, the concentration for half-maximal inhibition (IC50) was determined as 980 nM. As for `COc1cc(C(=O)O)nc(-c2cscn2)c1OC`, the IC50 amounted to 4300 nM.
